Measurements reported in paper PMC12362764, “Novel Cyano‐Artemisinin Dimer ZQJ29 Targets PARP1 to Induce Ferroptosis in Pancreatic Cancer Treatment” (Advanced Science, 2025).

Experiments:
PANC-1 = assay: CCK-8 cytotoxicity assay, PANC-1; format: cell-based
Protocol: (§1) Cell viability was evaluated using the Cell Counting Kit‐8 (Beyotime, Shanghai, China) assay. Cells were seeded in 96‐well plates at a density of 2×10^3 cells to allow for attachment. After treatment with ZQJ29 (0.001, 0.01, 0.1, 10, and 25 µM) for 24, 48, and 72 h, 10 µL of CCK‐8 solution was added to each well and incubated for 1 h. The optical density values were then measured at 450 nm using a multifunctional enzyme‐linked immunosorbent assay reader (Tecan, Spark, Switzerland).

A549 = assay: CCK-8 cytotoxicity assay, A549; format: cell-based; conditions: Homo sapiens, A549, 72 h
Protocol: as §1

LX2 = assay: CCK-8 cytotoxicity assay, LX2 (normal cell line); format: cell-based; conditions: Homo sapiens, LX-2, 72 h
Protocol: as §1

[1] = Pharmacokinetic study after intragastric administration; format: in vivo, Sprague-Dawley (SD) rats; conditions: rat, 50 mg/kg i.g.
Protocol: Male Sprague‐Dawley (SD) rats (200 ± 20 g) were purchased from Beijing Vital River Laboratory Animal Technology Co., Ltd. (Beijing, China). After a one‐week acclimatization period, the rats were injected intragastrically with ZQJ29 (50 mg kg^−1). Blood samples were collected from the jugular veins after the injection of ZQJ29 (at 5, 10, 20, 40, 60, 120, 240, 360, 720, and 1440 min). The whole blood was centrifuged at 4000 × g for 10 min at 4 °C. Plasma was extracted with MeOH by vortexing for 10 min. After centrifugation for 12 min at 12 000 × g at 4 °C, the supernatant was analyzed using an HPLC‐MS/MS system. The concentration of ZQJ29 was quantitatively measured by the external standard method. Pharmacokinetic parameters were calculated using Drug and Statistic (DAS, version 2.0) software based on the compartmental method.

[2] = Toxicity in tumor-bearing mice (body weight, ALT/AST, H&E); format: in vivo, BALB/c nude mice
Protocol: Five‐week‐old male BALB/c nude mice were purchased from Shanghai Jihui Laboratory Animal Breeding Co., Ltd. (Shanghai, China). After a one‐week acclimatization period, PANC‐1 cells were subcutaneously injected at a dose of 5 × 10^6 cells per mouse. Four weeks post‐injection, once tumor volumes reached 50–100 mm^3, the tumor‐bearing animals were randomly divided into four groups, each consisting of six animals. ZQJ29 was prepared in a 0.5% CMC‐Na solution, while OXA was dissolved in saline. The control group was treated with oral gavage of 0.5% CMC‐Na, while the positive control group was administered intraperitoneal injections of OXA at a dosage of 3 mg kg^−1 every three days. The test groups were treated with oral gavage of ZQJ29 at dosages of 25 and 50 mg kg day^−1. Mouse weights were monitored every other day. Tumor measurements were taken every other day using calipers, and the tumor volume was calculated using the following formula: ½ × length × width^2. Drug administered continued for three weeks. After blood collection at the end of the administration, the mice were humanely euthanized, and their vital organs were promptly harvested, preserved, and embedded in paraffin for H&E staining.
Following the experiments, organs from mice, including hearts, livers, spleens, lungs, and kidneys were swiftly collected and fixed in 4% paraformaldehyde overnight. The tissues were then embedded in paraffin. Afterward, 4‐µm‐thick sections were produced and stained using H&E. Images of these sections were captured with a Leica DM4000b microscope (Germany).
Blood samples were collected and placed in a biochemical incubator for 30 min, followed by centrifugation at 6000 rpm for 10 min. The supernatant was used to measure the following indicators: ALT and AST (both from Jiancheng, Nanjing, China).

PANC-1 and KP4 cells = assay: CCK-8 viability after PARP1 siRNA knockdown; format: cell-based; conditions: PARP1-siRNA transfection, ZQJ29 1 µM, 24 h
Protocol: as §1
A short interfering RNA (siRNA) targeting human PARP1 was designed and synthesized by GenePharma (Shanghai, China). The sequences of the siRNAs are detailed in Table S5 (Supporting Information). PANC‐1 and KP4 Cells were cultured in six‐well plates until they reached 70% confluence. The cells were then transfected with 50 nM siRNA‐PARP1 or a negative control with Lipofectamine 2000 (Thermo Fisher, USA) for 24 h, according to the manufacturer's instructions.

PARP1 [3] = molecular target: T1, PARP1 (Homo sapiens, UniProt P09874); assay: CETSA; format: binding; parameters: Total cellular proteins from PANC‐1 and KP4 were extracted using M‐PER lysis buffer; endogenous in cells; host or cells: PANC-1 and KP4 pancreatic cancer cells
T1 sequence (P09874 whole entry): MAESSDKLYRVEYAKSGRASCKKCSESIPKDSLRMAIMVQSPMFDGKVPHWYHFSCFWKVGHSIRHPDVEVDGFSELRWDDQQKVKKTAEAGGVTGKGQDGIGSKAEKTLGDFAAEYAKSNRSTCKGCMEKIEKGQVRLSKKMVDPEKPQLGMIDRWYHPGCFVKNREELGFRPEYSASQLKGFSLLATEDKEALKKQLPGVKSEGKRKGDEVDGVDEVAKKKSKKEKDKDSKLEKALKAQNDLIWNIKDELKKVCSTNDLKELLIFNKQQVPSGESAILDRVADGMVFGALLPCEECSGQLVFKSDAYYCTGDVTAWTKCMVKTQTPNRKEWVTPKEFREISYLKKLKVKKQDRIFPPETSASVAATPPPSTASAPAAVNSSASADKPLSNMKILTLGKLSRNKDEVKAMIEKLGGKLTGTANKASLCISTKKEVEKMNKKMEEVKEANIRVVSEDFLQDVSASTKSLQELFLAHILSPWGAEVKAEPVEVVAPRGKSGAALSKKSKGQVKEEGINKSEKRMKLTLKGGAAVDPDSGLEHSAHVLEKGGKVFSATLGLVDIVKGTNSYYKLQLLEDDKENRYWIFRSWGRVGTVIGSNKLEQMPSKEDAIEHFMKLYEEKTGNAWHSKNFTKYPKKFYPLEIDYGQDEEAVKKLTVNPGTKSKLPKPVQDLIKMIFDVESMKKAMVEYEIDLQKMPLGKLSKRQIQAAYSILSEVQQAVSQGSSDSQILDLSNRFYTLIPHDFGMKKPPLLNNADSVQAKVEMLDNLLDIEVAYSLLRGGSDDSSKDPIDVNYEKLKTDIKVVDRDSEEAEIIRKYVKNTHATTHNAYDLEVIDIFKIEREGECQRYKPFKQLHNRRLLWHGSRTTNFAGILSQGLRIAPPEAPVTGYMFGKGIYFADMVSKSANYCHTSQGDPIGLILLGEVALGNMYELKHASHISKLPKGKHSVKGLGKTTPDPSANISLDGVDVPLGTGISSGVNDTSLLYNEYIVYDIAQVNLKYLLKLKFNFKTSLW
Protocol: PANC‐1 and KP4 cells were treated with M‐PER lysis buffer to lyse the cells. The resulting protein extracts were divided into two parts. One part was treated with 50 µM ZQJ29, while the other received an equal amount of DMSO. Both mixtures were incubated on ice for 1 h. The samples were then divided into 100 µL PCR tubes and exposed to a range of temperatures starting at 45 °C. After cooling and centrifugation, 5 × SDS loading buffers were added to the supernatant. The samples were then heated to 95 °C for 10 min and analyzed SDS‐PAGE followed by Western blotting.

PARP1 [4] = molecular target: T1, PARP1; assay: DARTS; format: binding; parameters: Total cellular proteins from PANC‐1 and KP4 were extracted using M‐PER lysis buffer; endogenous in cells; host or cells: PANC-1 and KP4 pancreatic cancer cells; conditions: enzyme-lysate ratio 1:3000, higher ZQJ29 concentrations
Protocol: Total cellular proteins from PANC‐1 and KP4 were extracted using M‐PER lysis buffer (Thermo Fisher, USA). Aliquots of 50 µg of protein were taken from the lysate and placed into each 1.5 mL tube. Different concentrations of ZQJ29 were added to some tubes, while control tubes received an equal amount of DMSO. The mixtures were incubated at room temperature for 1 h. After incubation, Pronase was added to the mixture of cellular proteins at a ratio of Pronase: protein = 1: 3000 for digestion at room temperature for 15 min. Following digestion, 5 × loading buffer was added, and the samples were heated at 100 °C for 10 min before being used for western blot analysis.

[5] = male, Sprague-Dawley, plasma, po, n = 6

CC1CCC2C(C)C(OCCN(C#N)CCOC3OC4OC5(C)CCC6C(C)CCC(C3C)C46OO5)OC3OC4(C)CCC1C32OO4 (centres unmarked) [ZQJ29]
IC50 (PANC-1; Homo sapiens, PANC-1, 72 h, average of 3 parallel tests): 0.12 ± 0.03 µM | increased cytotoxicity compared to OXA and DHA (PANC-1; PANC-1 cells): ≈ 100 fold | IC50 (A549): > 10 µM | IC50 (LX2): > 10 µM | AUC(0-t) [1, 5]: 40 ± 16.3 ng·h/mL | Cmax [1, 5]: 11.8 ± 6.05 ng/mL | MRT last ([1]; male, Sprague-Dawley, plasma, po, n = 6, read-out: MRT0-t): 2.74 ± 0.46 h | MRT inf ([1]; male, Sprague-Dawley, plasma, po, read-out: average residence time (MRT0-inf)): 2.74 h | half-life ([1]; male, Sprague-Dawley, plasma, po, 50 mg/kg, n = 6): 1.58 ± 0.26 h | t1/2 ([1]; n = 6, 50 mg/kg): 1.6 h | post-experiment levels of ALT and AST ([2]; ZQJ29 50 mg/kg, OXA 3 mg/kg i.p.): no significant alterations | major organ damage (H&E staining) ([2]; hearts, livers, spleens, lungs, kidneys): no significant major organ damage | body weight during the whole treatment period ([2]; tumor-bearing nude mice, three weeks): remained stable | proliferation inhibition by ZQJ29 upon PARP1 knockdown (PANC-1 and KP4 cells): markedly reversed | PARP1 accumulation (thermal stability) (PARP1 [3]; PANC-1 and KP4 lysates, 50 µM ZQJ29, 45 to 70 °C): significantly increased | PARP1 stability at 60 °C (PARP1 [3]; cell lysates, increasing ZQJ29 concentrations): enhanced | PARP1 accumulation after pronase digestion (PARP1 [4]): increased
